Assay results reported in the OligoGym collection.
Where “and” joins values, the source holds several entries; their conditions need not be identical. Equal entries are not always repeated. After the bases stand the sugars from the 5' end (letter, count) and the backbone: PS all phosphorothioate, else s phosphorothioate and o phosphodiester by linkage. Methylation of C is not given here. e = 2'-O-(2-methoxyethyl) (MOE); k = constrained ethyl (cEt); d = 2'-deoxy (DNA)

Target: IRF4
Settings: ASO

Sequence	target mRNA inhibition (MM.1R, 1 µM)	target mRNA inhibition (SK-MEL-28, 4 µM)	other results
CTGTTACCGATGCTTC (sugars kddddddddddkekek, PS)	36% and 26%		
TCTATAGTGTTCCAGG (sugars kkdddddddddkdkdk, PS)	50%		target mRNA inhibition (MM.1R, 0.074 µM): 22%; target mRNA inhibition (MM.1R, 0.222 µM): 28%; target mRNA inhibition (MM.1R, 0.666 µM): 45%; target mRNA inhibition (MM.1R, 2 µM): 72%
CTTGTTCAAAGCGCAC (sugars k3 d10 k3, PS)		32%	
ACGTGTGCTTGCCAAG (sugars kkdddddddddekeke, PS)	59% and 61%		
GGGCACAAGCATAAAA (sugars k3 d10 k3, PS)		20%	
CAAGTGTCTAAAGTCC (sugars kkdddddddddekeke, PS)	23% and 25%		
ACACTTTTAGAGAGGA (sugars kkkdddddddddkeke, PS)	37%		
TGAGATAAGAAGCACT (sugars k3 d10 k3, PS)		20%	
AGTACGAGCACATGTC (sugars k3 d10 k3, PS)		34%	
TCCCACTGGGCTTTGT (sugars k3 d10 k3, PS)		32%	
GGAGTACCCGCAGAGA (sugars k3 d10 k3, PS)		25%	
GACTGGAACATTGTTG (sugars k3 d10 k3, PS)	-41%		
CGTAATACAAATAAAG (sugars k3 d10 k3, PS)		3%	
AAGCAGTGATGTCAGG (sugars kdddddddddkekeke, PS)	34% and 35%		
AGGCACATCAATGTTT (sugars k2 d9 e3 k2, PS)	36% and 43%		
AGATAAGAAGCACTGG (sugars k3 d10 k3, PS)		25%	
GATGAGAATTCCAAAC (sugars k3 d10 k3, PS)	14%	84%	target mRNA inhibition (MM.1R, 0.0625 µM): -1%; target mRNA inhibition (MM.1R, 0.074 µM): 0%; target mRNA inhibition (MM.1R, 0.222 µM): 2%; target mRNA inhibition (MM.1R, 0.25 µM): 2%; target mRNA inhibition (MM.1R, 0.666 µM): 0%; target mRNA inhibition (MM.1R, 2 µM): 32%; target mRNA inhibition (MM.1R, 4 µM): 36%
GCTGTCGATCTGGTCG (sugars k3 d10 k3, PS)		9%	
TGGGTATTTATAACCG (sugars k3 d10 k3, PS)	4%		
TCTCTCCAGTTTGTTG (sugars k3 d10 k3, PS)		14%	
TTCTACAAGGTCTGAG (sugars k3 d10 k3, PS)		47%	
GGCAACCTGCATTTGC (sugars k3 d10 k3, PS)		-13%	
TGTAGTATGAGAAACG (sugars kddddddddddkekek, PS)	7%		
ACCAAATTCCCGGAGG (sugars k3 d10 k3, PS)		7%	
CCACCCTCCGTCTCAC (sugars k3 d10 k3, PS)		33%	

Sequence	target mRNA inhibition (MM.1R, 1 µM)	target mRNA inhibition (SK-MEL-28, 4 µM)	other results
GCTCATGGCTGATAAT (sugars k3 d10 k3, PS)	-17%		
TCCCGGAGGAAGTCCC (sugars k3 d10 k3, PS)		30%	
TGTAGTATGAGAAACG (sugars kkdddddddddkekek, PS)	12%		
CTCCATCAATCATGAT (sugars k3 d10 k3, PS)		33%	
GAGAAACGGCCTGGAG (sugars k3 d10 k3, PS)		44%	
TGCCTGAACTGTGTAA (sugars k3 d10 k3, PS)		35%	
GAACGAGGTAAATCTT (sugars k3 d10 k3, PS)		56%	
CAAGGAGGCGGGCCTT (sugars k3 d10 k3, PS)		-2%	
GCTGAATGCTCTCCAT (sugars k3 d10 k3, PS)		52%	
TGTGTATTACTCTTAG (sugars kkdddddddddkekek, PS)			target mRNA inhibition (MM.1R, 0.0625 µM): 19%; target mRNA inhibition (MM.1R, 0.25 µM): 32%; target mRNA inhibition (MM.1R, 4 µM): 85%
TCCAGATGCAGATTCC (sugars k3 d10 k3, PS)		46%	
GTCTCTCACGCAGTGC (sugars k3 d10 k3, PS)		50%	
GCCAAAGAGCCCAATT (sugars k3 d10 k3, PS)		33%	
TGGACATCTGCGGGTC (sugars k3 d10 k3, PS)		44%	
ACTGCTTGAGGTTTTC (sugars kkdddddddddkekek, PS)	24%		
CCGCAATTCTCCTCAA (sugars k3 d10 k3, PS)		20%	
TTCTTTATAGTAGGTA (sugars k3 d10 k3, PS)	15%		
ACCCAGCTAATGAGAG (sugars k3 d10 k3, PS)		35%	
ACGAAACACAGTCTGC (sugars k3 d10 k3, PS)		52%	
AGATGTATACATCACT (sugars k3 d10 k3, PS)		76% and 71%	
CATAAAGGACCCCGCC (sugars k3 d10 k3, PS)	-5%		
GAAATACGACAACTTT (sugars k3 d10 k3, PS)		22%	
GGGATTATATACTGGT (sugars kkddddddddddkeke, PS)	46%		
GGCCACCGACTCTTTT (sugars k3 d10 k3, PS)		13%	
CCCACATAACTCAGGC (sugars k3 d10 k3, PS)	-16%		

Sequence	target mRNA inhibition (MM.1R, 1 µM)	target mRNA inhibition (SK-MEL-28, 4 µM)	other results
GGAAGTTTACACTGGA (sugars k3 d10 k3, PS)		85%	target mRNA inhibition (MM.1R, 0.0625 µM): 41% and 42%; target mRNA inhibition (MM.1R, 0.25 µM): 66% and 68%; target mRNA inhibition (MM.1R, 0.666 µM): 79% and 94%; target mRNA inhibition (MM.1R, 2 µM): 95% and 98%; target mRNA inhibition (MM.1R, 4 µM): 91%
ACGAGAACGCACGGAC (sugars k3 d10 k3, PS)		40%	
GCATTTTCCAGAAAAT (sugars k4 d8 k4, PS)		37%	
ACACGGGAATTTCCAT (sugars k3 d10 k3, PS)		56%	
CAGTGATGTCAGGTTT (sugars k3 d9 k3 e1, PS)	49%		
ACGTGTGCTTGCCAAG (sugars k2 d9 e3 k2, PS)	44% and 43%		
TTCATGTAAAGTCTGC (sugars kkdddddddddkdkdk, PS)	14% and 35%		
GAAGCTTAGTTATCTG (sugars k3 d10 k3, PS)	45% and 39%		
GTACTTGCCGCTGTCG (sugars k4 d8 k4, PS)		36%	
TCCTCAACCGCTGAAC (sugars k3 d10 k3, PS)		37%	
CTGGCATCGAGACGGG (sugars k3 d10 k3, PS)		47%	
GCCGAAGCATTTTATC (sugars k3 d10 k3, PS)		29%	
TACACCTCTTCACTAC (sugars k3 d10 k3, PS)	-18%		
CACTCAGCAAGTGTCT (sugars k3 d10 k3, PS)		50%	
ACAGTGATCATCAATG (sugars k3 d10 k3, PS)		56%	
TACATTGAGGCATACA (sugars k3 d10 k3, PS)		41%	
CTGAGTTACCGCATTG (sugars k3 d10 k3, PS)	49% and 54%		
CAAGACATAAACCAAG (sugars k3 d10 k3, PS)		51%	
GGCAGTTCTTTCAGCA (sugars k3 d10 k3, PS)		37%	
CACTACCTGCAGCCAA (sugars k3 d10 k3, PS)		31%	
AGCTAACTTACAGGAC (sugars k3 d10 k3, PS)		-4%	
ACTATTAAGAACTTGC (sugars k3 d10 k3, PS)		21%	
TCCTTTGGGTGCTTTC (sugars k3 d10 k3, PS)		32%	
